Assay results: ChEMBL document CHEMBL5108009, “Positron Emission Tomography (PET) Imaging Tracers for Serotonin Receptors” (J Med Chem, 2022)

What was measured:
[1] = biological target: T1, 5-hydroxytryptamine receptor 1A (Homo sapiens, UniProt P08908)
T1 sequence (P08908 whole entry): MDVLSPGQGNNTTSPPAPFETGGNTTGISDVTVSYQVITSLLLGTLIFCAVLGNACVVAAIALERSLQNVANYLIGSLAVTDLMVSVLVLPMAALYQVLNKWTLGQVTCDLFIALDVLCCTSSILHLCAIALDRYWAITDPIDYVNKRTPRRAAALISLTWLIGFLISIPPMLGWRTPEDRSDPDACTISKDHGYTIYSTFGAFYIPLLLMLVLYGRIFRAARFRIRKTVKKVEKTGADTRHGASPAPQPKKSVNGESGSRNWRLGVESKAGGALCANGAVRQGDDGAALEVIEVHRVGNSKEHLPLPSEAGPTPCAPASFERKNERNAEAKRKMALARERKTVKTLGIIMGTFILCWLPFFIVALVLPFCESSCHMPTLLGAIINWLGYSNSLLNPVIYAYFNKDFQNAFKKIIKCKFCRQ

[2] = biological target: 5-hydroxytryptamine receptor 7 (Homo sapiens, UniProt P34969); assay: Binding affinity to human recombinant 5-HT7 receptor expressed in CHO cells assessed as inhibition constant; format: cell-based
[3] = Binding affinity to pig 5-HT1B receptor (unknown origin) assessed as inhibition constant
[4] = biological target: T2, 5-hydroxytryptamine receptor 1A (Rattus norvegicus, UniProt P19327)
T2 sequence (P19327 whole entry): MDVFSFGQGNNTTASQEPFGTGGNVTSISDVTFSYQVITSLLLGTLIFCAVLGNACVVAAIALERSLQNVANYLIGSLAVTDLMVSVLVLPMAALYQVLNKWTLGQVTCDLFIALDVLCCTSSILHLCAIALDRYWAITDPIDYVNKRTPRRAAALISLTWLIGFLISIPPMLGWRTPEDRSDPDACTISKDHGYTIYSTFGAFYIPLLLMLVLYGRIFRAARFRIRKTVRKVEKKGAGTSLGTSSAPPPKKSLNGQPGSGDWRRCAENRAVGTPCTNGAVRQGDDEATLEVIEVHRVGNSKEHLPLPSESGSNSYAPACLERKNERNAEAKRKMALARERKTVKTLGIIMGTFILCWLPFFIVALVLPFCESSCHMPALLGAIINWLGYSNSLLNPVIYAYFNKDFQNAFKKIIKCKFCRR

[5] = biological target: T3, Alpha-1A adrenergic receptor (Homo sapiens, UniProt P35348); assay: Binding affinity to alpha 1A adrenergic receptor (unknown origin) assessed as inhibition constant
T3 sequence (P35348 whole entry): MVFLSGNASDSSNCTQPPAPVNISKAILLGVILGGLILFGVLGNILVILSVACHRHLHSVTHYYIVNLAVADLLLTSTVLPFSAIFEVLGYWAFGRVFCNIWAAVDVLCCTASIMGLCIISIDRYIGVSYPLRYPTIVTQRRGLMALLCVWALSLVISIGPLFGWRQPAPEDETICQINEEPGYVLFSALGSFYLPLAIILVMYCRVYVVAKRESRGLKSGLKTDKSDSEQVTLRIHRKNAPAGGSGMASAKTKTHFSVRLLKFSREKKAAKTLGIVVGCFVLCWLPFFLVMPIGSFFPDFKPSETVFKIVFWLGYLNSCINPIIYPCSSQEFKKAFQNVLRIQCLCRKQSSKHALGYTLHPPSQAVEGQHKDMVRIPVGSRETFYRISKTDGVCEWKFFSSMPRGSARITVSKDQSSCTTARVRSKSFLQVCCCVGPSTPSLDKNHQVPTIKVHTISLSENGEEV

[6] = biological target: T1, 5-hydroxytryptamine receptor 1A; assay: Binding affinity to 5-HT1A receptor in human HeLa cell membrane assessed as inhibition constant by Packard top-counter analysis; format: cell membranes
[7] = Lipophilicity, logD of the compound at pH 7.4; format: physicochemical; conditions: buffer
[8] = biological target: 5-hydroxytryptamine receptor 2A (Homo sapiens, UniProt P28223)
[9] = Drug uptake in pig brain cortex measured at 10 to 20 mins postinjection; format: ADME, organism-based, Sus scrofa; conditions: in vivo, time 10-20 min
[10] = Ratio of drug uptake in rat hippocampus to cerebellum by measuring radioactivity at […], iv; format: ADME, tissue-based; conditions: in vivo, dose 25-30 mCi
[11] = Ratio of drug uptake in rat temporal cortex to cerebellum by measuring radioactivity at 10 mins postinjection; format: ADME, organism-based; conditions: in vivo
[12] = Ratio of drug uptake in rat temporal cortex to cerebellum by measuring radioactivity at 20 mins postinjection; format: ADME, organism-based; conditions: in vivo
[13] = biological target: T4, 5-hydroxytryptamine receptor 2C (Homo sapiens) (UniProt P28335); assay: Binding affinity to 5-HT2C (unknown origin); conditions: filed as agonist
T4 sequence (whole entry): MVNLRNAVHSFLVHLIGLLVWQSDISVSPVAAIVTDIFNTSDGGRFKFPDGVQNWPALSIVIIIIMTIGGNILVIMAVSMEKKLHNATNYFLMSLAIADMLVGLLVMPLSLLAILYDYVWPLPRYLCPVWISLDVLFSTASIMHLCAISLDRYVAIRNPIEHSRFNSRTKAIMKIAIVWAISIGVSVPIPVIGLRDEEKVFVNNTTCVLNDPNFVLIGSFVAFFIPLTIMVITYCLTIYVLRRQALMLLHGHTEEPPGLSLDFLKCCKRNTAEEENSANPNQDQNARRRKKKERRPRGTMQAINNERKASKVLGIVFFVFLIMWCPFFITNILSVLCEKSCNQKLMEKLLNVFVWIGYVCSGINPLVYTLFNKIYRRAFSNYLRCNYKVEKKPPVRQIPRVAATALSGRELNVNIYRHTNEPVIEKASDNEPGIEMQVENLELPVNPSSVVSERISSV

[14] = biological target: T4, 5-hydroxytryptamine receptor 2C (Homo sapiens); assay: Agonist activity at 5-HT2C receptor (unknown origin); format: functional; conditions: filed as agonist

Chain of 5-hydroxytryptamine receptor 7 (P34969 whole entry): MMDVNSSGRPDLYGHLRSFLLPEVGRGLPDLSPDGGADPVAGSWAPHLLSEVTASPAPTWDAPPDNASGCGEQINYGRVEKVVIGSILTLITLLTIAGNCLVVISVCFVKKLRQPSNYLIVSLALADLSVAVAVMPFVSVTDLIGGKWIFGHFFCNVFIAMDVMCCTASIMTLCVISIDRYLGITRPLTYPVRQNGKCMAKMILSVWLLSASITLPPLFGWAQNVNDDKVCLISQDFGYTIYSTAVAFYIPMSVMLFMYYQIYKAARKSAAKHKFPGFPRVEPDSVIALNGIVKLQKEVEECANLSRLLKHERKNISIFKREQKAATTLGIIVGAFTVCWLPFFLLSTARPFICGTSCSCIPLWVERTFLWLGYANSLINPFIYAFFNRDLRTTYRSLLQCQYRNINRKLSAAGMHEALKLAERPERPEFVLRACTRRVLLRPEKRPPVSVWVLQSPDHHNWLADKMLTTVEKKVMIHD
Chain of 5-hydroxytryptamine receptor 2A (P28223 whole entry): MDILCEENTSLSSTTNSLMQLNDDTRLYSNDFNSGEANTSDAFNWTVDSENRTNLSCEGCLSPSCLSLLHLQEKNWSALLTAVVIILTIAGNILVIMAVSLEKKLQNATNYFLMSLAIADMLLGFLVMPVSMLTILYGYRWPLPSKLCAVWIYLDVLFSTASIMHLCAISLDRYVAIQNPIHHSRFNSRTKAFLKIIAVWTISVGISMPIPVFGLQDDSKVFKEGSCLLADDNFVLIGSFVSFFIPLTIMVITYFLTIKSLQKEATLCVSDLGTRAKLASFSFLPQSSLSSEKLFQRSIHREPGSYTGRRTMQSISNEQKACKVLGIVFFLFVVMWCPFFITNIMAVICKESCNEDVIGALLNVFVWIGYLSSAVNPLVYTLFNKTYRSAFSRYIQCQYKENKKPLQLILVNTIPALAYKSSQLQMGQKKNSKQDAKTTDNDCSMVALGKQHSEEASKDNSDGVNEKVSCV

Compound `O=C(NCCN1CCN(c2cccc(C(F)(F)F)n2)CC1)c1ccc(F)cc1` has a Ki [1] of 0.5 nM.
Compound `O=S(=O)(c1ccccc1F)N1CCC[C@@H]1CCCN1CCN(c2ccc(Cl)cc2)CC1` has a Ki [2] of 0.22 nM.
Compound `COC(=O)N1CCN(c2ccc(NC(=O)C3CCc4cc(F)cc(N5CCN([11CH3])CC5)c4O3)cc2)CC1` (configuration not stated) has a Ki [3] of 0.5 nM.
Compound `COc1ccccc1N1CCN(CCNC(=O)C2CCCCC2)CC1` has an IC50 [4] of 4.3 nM.
Work on `COc1ccccc1N1CCN(CCCN/C(=N\C#N)c2ccccn2)CC1` yielded a Ki [5] of 20 nM.
Compound `COc1ccccc1N1CCN(CCN(C(=O)c2ccc(F)c(C)c2)c2ccccn2)CC1` has a Ki [5] of 13 nM.
Compound `Cc1ccc(N2CCN([11CH3])CC2)c2nc(C(=O)Nc3ccc(N4CCOCC4)cc3)ccc12` has a Ki [3] of 0.2 nM.
Compound `CCCN(CCCCC1C(=O)CC2(CCCC2)CC1=O)[C@H]1CCc2cccc(OC)c2C1` has a Ki [1] of 0.9 nM.
For `CN1CCN(c2cc(F)cc3c(=O)cc(C(=O)Nc4ccc(N5CCOCC5)c(F)c4)oc23)CC1`, the Ki [3] was 0.13 nM.
In the case of `COc1ccccc1N1CCN(CCNC(=O)c2ccncc2)CC1`, the Ki [5] is reported as 20 nM.
For `O=S(=O)(c1ccc(F)cc1)N1CCC[C@@H]1CCCN1CCN(c2ccc(Cl)cc2)CC1`, the Ki [2] was 0.32 nM.
Compound `COc1ccccc1N1CCN(CCN(C(=O)N2CCCCC2)c2cccc(F)n2)CC1` has a Ki [6] of 0.51 nM.
`CN1CCN(c2cccc3c2C[C@@H](NC(=O)c2ccc(N4CCOCC4)cc2)CC3)CC1` gave a Ki [3] of 0.46 nM.
`CC1(NC(=O)c2ccc(N)cc2)CCN(CCCOc2ccc([18F])cc2)CC1` gave a logD [7] of 2.53.
For `CCc1cc(OC)cc(CCNCc2cccc(F)c2)c1OC`, the Ki [8] was 2.4 nM.
With `COc1cc(Br)c(O[11CH3])cc1CCNCc1ccccc1OC` the SUV [9] was 0.8.
Compound `O=C(C1CCCCC1)N(CCN1CCN(c2ccccc2OCC[18F])CC1)c1ccccn1` has a Ratio [10] of 5.5.
For `O=C(C1CCCCC1)N(CCN1CCN(c2ccccc2OCCC[18F])CC1)c1ccccn1`, the Ratio [10] was 7.5.
Work on `CC1CCN(CCC[C@H]2CCCN2S(=O)(=O)c2ccc(F)cc2)CC1` yielded a Ki [2] of 16 nM.
`CCCN(CCC)C1CCc2cccc(SC)c2C1` (racemic) showed an IC50 [4] of 1.2 nM.
Compound `COc1ccccc1N1CCN(CCCCc2ccc3c(c2)oc(=O)n3C)CC1` has a Ki [1] of 0.04 nM.
Work on `COc1ccccc1N1CCN(CCN(c2cccc(F)n2)[11C](=O)N2CCCCC2)CC1` yielded a Ratio [11] of 1.9 and a Ratio [12] of 3.
`c1cc2c3c(c1)[C@H]1CCC[C@H]1N3CCNC2` showed a K [13] of 10 nM and a K [14] of 8 nM.
`COc1ccccc1N1CCN(CCN(c2cccc(Br)n2)[11C](=O)N2CCCCC2)CC1` showed a Ratio [11] of 1.9 and a Ratio [12] of 3.
Work on `COc1c(Br)cc([18F])cc1CCNCc1cccc2c1OCO2` yielded a Ki [8] of 1.7 nM.
Work on `COc1cc(Br)c(OC)c(CCNCc2cccc(F)c2)c1` yielded a Ki [8] of 2.7 nM.
For `c1cc2c3c(c1)[C@H]1CCC[C@H]1CN3CCNC2`, the K [13] was 3 nM and the K [14] was 8 nM.
Work on `[11CH3]N1CCN(c2cccc3c2O[C@@H](C(=O)Nc2ccc(N4CCOCC4)cc2)CC3)CC1` yielded a Ki [3] of 0.3 nM.
